Assay results reported in patent US20150307520A1, “NOVEL HETEROARYL AND HETEROCYCLE COMPOUNDS, COMPOSITIONS AND METHODS THEREOF” (HUTCHISON MEDIPHARMA LIMITED, priority 2012, published 2015).

Key:
Type in all cases: biochemical
p110β/p85α = p110β/p85α (Homo sapiens, UniProt P42338); test: Transcreener KINASE Assay, kinase inhibition of p110β/p85α; settings: for PI3Kβ IH % @ 1 uM: 1 uM test compound; for IC50: read-out: PI3Kβ IC50
Outline: (§1)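 Recombinant PI3K/p85α heterodimers were incubated with compound (2% DMSO final) for 80 min at room temperature in 50 mM HEPES, 100 mM NaCl, 1 mM EGTA, 0.03% CHAPS, 3 mM MgCl2, 1 mM DTT, with substrate added as a 30 uM PIP2/10 uM ATP mix. ADP was detected by competitive fluorescence polarization immunoassay.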

p110γ = p110γ (Homo sapiens, UniProt P48736); test: Transcreener KINASE Assay, kinase inhibition of p110γ; settings: for PI3Kγ IH % @ 1 uM: 1 uM test compound; for IC50: read-out: PI3Kγ IC50
Outline: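 Recombinant PI3K isoform complexes were tested in a two-step endpoint ADP-detection assay. Kinase reaction ran 80 min at room temperature, followed by 60 min with ADP detection mix. Far-red competitive fluorescence polarization immunoassay read-out; IC50s fitted from the FP data.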

p110δ/p85α = p110δ/p85α (Homo sapiens, UniProt O00329); test: Transcreener KINASE Assay, kinase inhibition of p110δ/p85α; settings: for PI3Kδ IH % @ 1 uM: 1 uM test compound; for IC50: read-out: PI3Kδ IC50
Outline: as §1

p110δ/p85α, sequence (O00329 whole entry): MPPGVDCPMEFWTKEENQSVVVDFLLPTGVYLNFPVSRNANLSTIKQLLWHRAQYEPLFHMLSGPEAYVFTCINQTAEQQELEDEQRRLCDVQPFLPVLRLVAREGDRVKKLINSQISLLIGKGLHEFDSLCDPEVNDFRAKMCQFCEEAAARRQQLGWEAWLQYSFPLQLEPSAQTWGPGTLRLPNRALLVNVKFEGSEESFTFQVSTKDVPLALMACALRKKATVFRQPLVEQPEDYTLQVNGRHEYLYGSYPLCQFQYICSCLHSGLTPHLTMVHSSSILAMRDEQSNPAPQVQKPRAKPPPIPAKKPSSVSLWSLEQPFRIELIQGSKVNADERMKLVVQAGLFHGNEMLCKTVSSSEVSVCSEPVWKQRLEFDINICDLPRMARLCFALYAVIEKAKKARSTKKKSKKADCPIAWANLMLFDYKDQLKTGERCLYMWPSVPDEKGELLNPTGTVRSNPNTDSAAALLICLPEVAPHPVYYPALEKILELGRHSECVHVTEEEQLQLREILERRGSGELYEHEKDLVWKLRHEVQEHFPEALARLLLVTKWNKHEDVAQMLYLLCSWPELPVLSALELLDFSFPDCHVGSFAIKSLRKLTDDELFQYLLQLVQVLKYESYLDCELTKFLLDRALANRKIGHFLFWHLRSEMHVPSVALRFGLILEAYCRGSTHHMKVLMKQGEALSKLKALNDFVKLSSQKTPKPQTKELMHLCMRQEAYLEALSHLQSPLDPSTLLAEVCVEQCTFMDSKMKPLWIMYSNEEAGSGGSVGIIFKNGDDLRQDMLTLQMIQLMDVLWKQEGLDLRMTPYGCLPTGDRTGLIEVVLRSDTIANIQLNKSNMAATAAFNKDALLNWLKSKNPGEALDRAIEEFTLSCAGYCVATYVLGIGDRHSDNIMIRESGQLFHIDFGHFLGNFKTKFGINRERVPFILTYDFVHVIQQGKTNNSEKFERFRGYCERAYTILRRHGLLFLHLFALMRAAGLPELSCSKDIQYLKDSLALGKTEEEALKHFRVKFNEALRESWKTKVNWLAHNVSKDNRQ
p110δ/p85α, sequence (P27986 whole entry partner): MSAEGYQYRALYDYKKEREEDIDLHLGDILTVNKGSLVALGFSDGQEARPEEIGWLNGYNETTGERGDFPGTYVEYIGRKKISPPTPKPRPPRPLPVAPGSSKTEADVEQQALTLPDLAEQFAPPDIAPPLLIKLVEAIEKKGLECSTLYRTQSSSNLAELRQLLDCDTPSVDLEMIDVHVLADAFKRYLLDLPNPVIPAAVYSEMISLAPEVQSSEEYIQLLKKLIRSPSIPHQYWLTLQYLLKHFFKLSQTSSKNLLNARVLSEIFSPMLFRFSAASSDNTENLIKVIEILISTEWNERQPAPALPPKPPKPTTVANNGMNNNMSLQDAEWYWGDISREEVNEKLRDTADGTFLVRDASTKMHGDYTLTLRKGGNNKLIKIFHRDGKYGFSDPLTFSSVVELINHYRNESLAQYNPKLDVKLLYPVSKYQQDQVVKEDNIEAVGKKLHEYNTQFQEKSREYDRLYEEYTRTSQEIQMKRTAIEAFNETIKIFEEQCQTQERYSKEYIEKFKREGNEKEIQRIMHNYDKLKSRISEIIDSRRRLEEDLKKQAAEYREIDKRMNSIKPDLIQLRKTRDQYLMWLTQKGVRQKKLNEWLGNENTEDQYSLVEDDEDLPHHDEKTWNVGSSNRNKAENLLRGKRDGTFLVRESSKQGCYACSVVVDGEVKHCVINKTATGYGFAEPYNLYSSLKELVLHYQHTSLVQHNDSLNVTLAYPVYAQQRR
p110β/p85α, sequence (P42338 whole entry): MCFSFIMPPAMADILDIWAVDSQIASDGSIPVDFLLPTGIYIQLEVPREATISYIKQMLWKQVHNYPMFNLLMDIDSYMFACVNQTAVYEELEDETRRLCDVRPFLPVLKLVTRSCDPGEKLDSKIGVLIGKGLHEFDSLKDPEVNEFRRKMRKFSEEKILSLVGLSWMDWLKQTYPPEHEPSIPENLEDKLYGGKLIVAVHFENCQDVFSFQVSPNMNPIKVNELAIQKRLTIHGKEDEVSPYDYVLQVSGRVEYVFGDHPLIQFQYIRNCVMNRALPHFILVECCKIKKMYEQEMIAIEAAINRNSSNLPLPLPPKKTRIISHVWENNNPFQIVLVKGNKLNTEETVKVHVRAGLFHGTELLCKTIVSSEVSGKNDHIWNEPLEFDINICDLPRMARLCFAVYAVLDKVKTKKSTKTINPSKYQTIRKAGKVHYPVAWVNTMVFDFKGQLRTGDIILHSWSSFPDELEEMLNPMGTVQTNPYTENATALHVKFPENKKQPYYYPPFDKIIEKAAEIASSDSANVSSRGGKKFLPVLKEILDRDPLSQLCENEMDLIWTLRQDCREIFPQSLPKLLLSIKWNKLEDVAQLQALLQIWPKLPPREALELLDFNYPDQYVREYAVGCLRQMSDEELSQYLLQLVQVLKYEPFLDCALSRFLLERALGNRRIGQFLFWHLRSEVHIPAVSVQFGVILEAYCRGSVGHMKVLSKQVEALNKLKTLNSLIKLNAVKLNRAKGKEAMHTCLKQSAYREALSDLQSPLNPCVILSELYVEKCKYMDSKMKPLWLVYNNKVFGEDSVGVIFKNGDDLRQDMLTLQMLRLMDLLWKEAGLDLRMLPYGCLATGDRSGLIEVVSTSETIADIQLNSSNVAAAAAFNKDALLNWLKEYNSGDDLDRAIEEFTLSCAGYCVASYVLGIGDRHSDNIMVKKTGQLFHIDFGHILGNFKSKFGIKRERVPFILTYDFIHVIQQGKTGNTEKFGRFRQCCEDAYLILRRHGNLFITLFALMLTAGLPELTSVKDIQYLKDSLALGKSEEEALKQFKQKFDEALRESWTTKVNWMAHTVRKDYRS
p110β/p85α, sequence (P27986 2-724 partner): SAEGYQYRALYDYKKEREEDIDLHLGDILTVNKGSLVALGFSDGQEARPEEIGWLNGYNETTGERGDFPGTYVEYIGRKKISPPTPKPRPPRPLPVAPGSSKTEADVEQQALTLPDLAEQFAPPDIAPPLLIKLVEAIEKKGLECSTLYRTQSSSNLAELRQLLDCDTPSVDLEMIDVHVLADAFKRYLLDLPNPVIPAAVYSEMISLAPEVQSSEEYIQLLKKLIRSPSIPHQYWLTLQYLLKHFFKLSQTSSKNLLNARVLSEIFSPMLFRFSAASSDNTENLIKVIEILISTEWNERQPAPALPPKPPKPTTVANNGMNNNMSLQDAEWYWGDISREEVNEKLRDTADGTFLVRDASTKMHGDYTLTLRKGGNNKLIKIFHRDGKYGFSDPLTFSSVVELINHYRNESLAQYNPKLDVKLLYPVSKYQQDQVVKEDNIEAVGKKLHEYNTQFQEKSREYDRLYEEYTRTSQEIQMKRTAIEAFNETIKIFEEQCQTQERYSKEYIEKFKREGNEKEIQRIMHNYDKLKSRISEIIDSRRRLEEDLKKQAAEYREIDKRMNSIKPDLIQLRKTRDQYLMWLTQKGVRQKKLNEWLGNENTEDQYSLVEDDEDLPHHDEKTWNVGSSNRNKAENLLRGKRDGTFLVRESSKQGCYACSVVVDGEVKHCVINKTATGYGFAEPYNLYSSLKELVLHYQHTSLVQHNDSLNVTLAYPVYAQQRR
p110γ, sequence (P48736 whole entry, canonical isoform): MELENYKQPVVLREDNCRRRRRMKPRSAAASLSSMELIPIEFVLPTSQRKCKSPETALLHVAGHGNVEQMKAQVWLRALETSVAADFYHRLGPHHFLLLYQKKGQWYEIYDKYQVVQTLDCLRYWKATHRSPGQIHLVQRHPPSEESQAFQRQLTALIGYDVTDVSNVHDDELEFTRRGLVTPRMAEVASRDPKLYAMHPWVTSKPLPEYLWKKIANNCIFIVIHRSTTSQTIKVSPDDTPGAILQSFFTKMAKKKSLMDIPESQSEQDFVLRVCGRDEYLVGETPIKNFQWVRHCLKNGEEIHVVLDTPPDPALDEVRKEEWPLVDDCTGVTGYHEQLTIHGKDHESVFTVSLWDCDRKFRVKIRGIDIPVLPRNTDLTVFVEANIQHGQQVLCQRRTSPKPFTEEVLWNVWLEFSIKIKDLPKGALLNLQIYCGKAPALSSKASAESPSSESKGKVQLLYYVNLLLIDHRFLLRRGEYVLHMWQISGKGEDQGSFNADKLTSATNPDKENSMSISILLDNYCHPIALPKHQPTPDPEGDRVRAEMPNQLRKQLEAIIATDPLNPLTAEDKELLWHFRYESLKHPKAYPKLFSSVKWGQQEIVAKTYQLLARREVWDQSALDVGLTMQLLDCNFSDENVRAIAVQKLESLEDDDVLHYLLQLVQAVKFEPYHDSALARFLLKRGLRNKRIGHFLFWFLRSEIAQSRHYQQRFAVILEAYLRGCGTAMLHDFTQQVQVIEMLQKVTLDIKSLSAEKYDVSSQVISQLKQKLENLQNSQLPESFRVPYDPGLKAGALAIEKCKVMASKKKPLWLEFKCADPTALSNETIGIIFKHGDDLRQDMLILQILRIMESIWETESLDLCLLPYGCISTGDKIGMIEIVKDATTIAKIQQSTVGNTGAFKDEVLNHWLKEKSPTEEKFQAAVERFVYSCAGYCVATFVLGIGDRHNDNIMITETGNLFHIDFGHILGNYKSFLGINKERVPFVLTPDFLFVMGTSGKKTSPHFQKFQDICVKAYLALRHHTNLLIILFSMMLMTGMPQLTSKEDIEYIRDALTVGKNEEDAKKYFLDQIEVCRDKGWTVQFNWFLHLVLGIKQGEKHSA

| PI3Kβ IH % @ 1 uM (p110β/p85α) [%] | PI3Kγ IH % @ 1 uM (p110γ) [%] | PI3Kδ IH % @ 1 uM (p110δ/p85α) [%] | IC50 (p110δ/p85α) [nM] | IC50 (p110γ) [nM] | IC50 (p110β/p85α) [nM] | Structure (SMILES) |
| --- | --- | --- | --- | --- | --- | --- |
| 45.9 | 99.0 | >100 | 6 |  |  | CC(=O)c1c[nH]c2ncnc(N3CC[C@H]3c3nn4ccc(Cl)c4c(=O)n3-c3ccccc3)c12 [Compound 185, (S)-2-(1-(5-acetyl-7H-pyrrolo[2,3-d]pyrimidin-4-yl)azetidin-2-yl)-5-chloro-3-phenylpyrrolo[2,1-f][1,2,4]triazin-4(3H)-one] |
| 52.9 | 84.1 | 92.0 | 3 |  |  | O=c1c2c(F)ccn2nc([C@@H]2CCCN2c2ncnc3[nH]cnc23)n1-c1ccccc1 [Compound 190] |
| 56.8 | >100 | >100 | 3 | 32 |  | O=c1c2c(F)ccn2nc([C@@H]2CCCN2c2ncnc3[nH]cnc23)n1-c1cccc(F)c1 [Compound 191] |
| 65.3 | >100 | 98.5 | 4 | 18 |  | CS(=O)(=O)c1cccc(-n2c([C@@H]3CCCN3c3ncnc4[nH]cc(C#N)c34)nn3ccc(Cl)c3c2=O)c1 [Compound 192] |
| 31.5 | 93.7 | >100 | 23 | 121 |  | CS(=O)(=O)c1cccc(-n2c([C@@H]3CCCN3c3ncnc4[nH]cnc34)nn3ccc(Cl)c3c2=O)c1 [Compound 193] |
| 29.5 | 75.1 | >100 | 23 | 150 |  | N#Cc1c(N)ncnc1N1CC[C@H]1c1nn2ccc(Br)c2c(=O)n1-c1ccccc1 [Compound 194] |
| 32.3 | >100 | 97.1 | 69 | 65 |  | C[S+]([O-])c1c[nH]c2ncnc(N3CC[C@H]3c3nn4ccc(Cl)c4c(=O)n3-c3ccccc3)c12 (stereo partly shown) [Compound 196] |
| 17.1 | 94.6 | 59.5 | 2000 | 34 |  | C[S+]([O-])c1c[nH]c2ncnc(N3CC[C@H]3c3nn4ccc(Cl)c4c(=O)n3-c3ccc(F)cc3)c12 (stereo partly shown) [Compound 199] |
| 28.2 | 93.4 | 90.9 | 196 | 190 |  | CNc1ncnc(N2CCC[C@H]2c2nn3ccc(Cl)c3c(=O)n2-c2ccccc2)n1 [Compound 200] |
| 25.3 | >100 | >100 | 19 | 49 |  | Cc1nc(N)nc(N2CCC[C@H]2c2nn3ccc(Cl)c3c(=O)n2-c2ccccc2)n1 [Compound 201] |
| 23.3 | 65.3 | 94.6 | 100 |  |  | O=c1c2c(Cl)ccn2nc([C@@H]2CCCCN2c2ncnc3[nH]cnc23)n1-c1ccccc1 [Compound 203] |
| 28.9 | 84.2 | 85.1 | 109 | 250 |  | C[S+]([O-])c1c[nH]c2ncnc(N3CC[C@H]3c3nn4ccc(F)c4c(=O)n3-c3ccccc3)c12 (stereo partly shown) [Compound 204] |
| 21.6 | 76.1 | 76.1 | 74 | 229 |  | Cc1nc(N)nc(N2CC[C@H]2c2nn3ccc(Cl)c3c(=O)n2-c2ccccc2)n1 [Compound 205] |
| 80.4 | >100 | >100 | 1 |  | 298 | N#Cc1cnc(N)nc1N1CCC[C@H]1c1nn2ccc(Cl)c2c(=O)n1-c1ccccc1 [Compound 207] |
| 81.7 | 92.2 | 97.4 | 4 | 3 | 89 | CC(=O)c1c[nH]c2ncnc(N3CCC[C@H]3c3nn4ccc(Cl)c4c(=O)n3-c3ccc(F)cc3)c12 [Compound 208] |
| 53.5 | 89.6 | 94.2 | 12 | 30 |  | C[S+]([O-])c1c[nH]c2ncnc(N3CCC[C@H]3c3nn4ccc(Cl)c4c(=O)n3-c3ccc(F)cc3)c12 (stereo partly shown) [Compound 209] |

Second part, the molecule before the results:

| Structure (SMILES) | PI3Kβ IH % @ 1 uM (p110β/p85α) [%] | PI3Kγ IH % @ 1 uM (p110γ) [%] | PI3Kδ IH % @ 1 uM (p110δ/p85α) [%] | IC50 (p110δ/p85α) [nM] | IC50 (p110γ) [nM] | IC50 (p110β/p85α) [nM] |
| --- | --- | --- | --- | --- | --- | --- |
| COc1ncc(-c2n[nH]c3ncnc(N4CCC[C@H]4c4nn5ccc(Cl)c5c(=O)n4-c4ccccc4)c23)cn1 [Compound 168] | 98.8 | 95.1 | >100 |  |  |  |
| Nc1ccc(-c2n[nH]c3ncnc(N4CC[C@H]4c4nn5ccc(Cl)c5c(=O)n4-c4ccccc4)c23)cn1 [Compound 169] | −21.1 | 31.2 | 88.0 | 4 |  |  |
| COc1ccc(-c2n[nH]c3ncnc(N4CC[C@H]4c4nn5ccc(Cl)c5c(=O)n4-c4ccccc4)c23)cn1 [Compound 170] | 4.6 | 66.5 | 96.1 | 5 |  |  |
| Nc1ncc(-c2n[nH]c3ncnc(N4CC[C@H]4c4nn5ccc(Cl)c5c(=O)n4-c4ccccc4)c23)cn1 [Compound 171] | 25.2 | 75.3 | 96.6 | 5 | 130 |  |
| COc1ncc(-c2n[nH]c3ncnc(N4CC[C@H]4c4nn5ccc(Cl)c5c(=O)n4-c4ccccc4)c23)cn1 [Compound 172] | 38.2 | 79.8 | 99.6 | 2 | 297 |  |
| N#Cc1ccc(-c2n[nH]c3ncnc(N4CC[C@H]4c4nn5ccc(Cl)c5c(=O)n4-c4ccccc4)c23)cn1 [Compound 173] | 25.7 | 48.7 | 96.3 | 4 |  |  |
| CC(Nc1ncnc2[nH]cc(-c3ccc(N)nc3)c12)c1cc2ncc(Cl)n2c(=O)n1-c1ccccc1 (stereo not shown) [Compound 174] | 97.7 | 94.0 | >100 | 1 | 31 | 23 |
| COc1ncc(-c2c[nH]c3ncnc(NC(C)c4cc5ncc(Cl)n5c(=O)n4-c4ccccc4)c23)cn1 (stereo not shown) [Compound 175] | 90.9 | 87.6 | 99.5 | 1 | 105 | 78 |
| Nc1ccc(-c2c[nH]c3ncnc(N4CCOC[C@H]4c4nn5ccc(Cl)c5c(=O)n4-c4ccccc4)c23)cn1 [Compound 176] | 16.8 | 58.3 | 97.1 | 5 |  |  |
| O=c1c2c(CO)ccn2nc([C@@H]2CCCN2c2ncnc3[nH]cnc23)n1-c1ccccc1 [Compound 177, (S)-2-(1-(9H-purin-6-yl)pyrrolidin-2-yl)-5-(hydroxymethyl)-3-phenylpyrrolo[2,1-f][1,2,4]triazin-4(3H)-one] | 17.0 | 79.8 | 97.1 | 30 | 89 |  |
| Nc1ncc(C(F)(F)F)c(N2CCC[C@H]2c2nn3ccc(CO)c3c(=O)n2-c2ccccc2)n1 [Compound 178] | 1.5 | 7.6 | 82.3 | 211 |  |  |
| N#Cc1c[nH]c2ncnc(N3CCC[C@H]3c3nn4ccc(CO)c4c(=O)n3-c3ccccc3)c12 [Compound 179] | 51.5 | 97.9 | >100 | 2 | 15 |  |
| Nc1ncc(-c2c[nH]c3ncnc(N4CC[C@H]4c4nn5ccc(F)c5c(=O)n4-c4ccccc4)c23)cn1 [Compound 180, (S)-2-(1-(5-(2-aminopyrimidin-5-yl)-7H-pyrrolo[2,3-d]pyrimidin-4-yl)azetidin-2-yl)-5-fluoro-3-phenylpyrrolo[2,1-f][1,2,4]triazin-4(3H)-one] | 92.8 | 98.7 | >100 | < 0.46 | 2 | 41 |
| COc1ncc(-c2c[nH]c3ncnc(N4CC[C@H]4c4nn5ccc(F)c5c(=O)n4-c4ccccc4)c23)cn1 [Compound 181] | 95.9 | >100 | >100 |  | 4 | 23 |
| COc1ccc(-c2c[nH]c3ncnc(N4CC[C@H]4c4nn5ccc(F)c5c(=O)n4-c4ccccc4)c23)cn1 [Compound 182] | 93.3 | 94.9 | >100 |  | 7 | 62 |
| Nc1ccc(-c2c[nH]c3ncnc(N4CC[C@H]4c4nn5ccc(F)c5c(=O)n4-c4ccccc4)c23)cn1 [Compound 183] | 77.2 | >100 | >100 |  | 5 | 331 |
| N#Cc1ncc(-c2c[nH]c3ncnc(N4CC[C@H]4c4nn5ccc(F)c5c(=O)n4-c4ccccc4)c23)cn1 [Compound 184] | >100 | 98.4 | >100 | 0.5 | 8 | 38 |
